# In ChEMBL document CHEMBL3856199, “Melanoma-targeted delivery system (part 2): Synthesis, radioiodination and biological evaluation in B16F0 bearing mice” (Eur J Med Chem, 2016):
# Experiments:
# [1] = Drug uptake in blood of C57BL/6J mouse implanted with mouse B16F0 cells at 3.7 MBq, iv measured at 6 hrs post injection by gamma counting analysis; type: ADME, organism-based; conditions: in vivo
# [2] = Drug uptake in kidney of C57BL/6J mouse implanted with mouse B16F0 cells at 3.7 MBq, iv measured at 1 hr post injection by gamma counting analysis; type: ADME, organism-based; conditions: in vivo
# [3] = Drug uptake in blood of C57BL/6J mouse implanted with mouse B16F0 cells at 3.7 MBq, iv measured at 3 hrs post injection by gamma counting analysis; type: ADME, organism-based; conditions: in vivo
# [4] = Drug uptake in liver of C57BL/6J mouse implanted with mouse B16F0 cells at 3.7 MBq, iv measured at 3 hrs post injection by gamma counting analysis; type: ADME, organism-based; conditions: in vivo
# [5] = Drug uptake in eyes of C57BL/6J mouse implanted with mouse B16F0 cells at 3.7 MBq, iv measured at 6 hrs post injection by gamma counting analysis; type: ADME, organism-based, Eye; conditions: in vivo
# [6] = Drug uptake in stomach of C57BL/6J mouse implanted with mouse B16F0 cells at 3.7 MBq, iv measured at 1 hr post injection by gamma counting analysis; type: ADME, organism-based; conditions: in vivo
# [7] = Ratio of drug uptake in tumor to muscle in C57BL/6J mouse implanted with mouse B16F0 cells at 3.7 MBq, iv measured at 3 hrs post injection; type: ADME, organism-based; conditions: in vivo
# [8] = Drug uptake in stomach of C57BL/6J mouse implanted with mouse B16F0 cells at 3.7 MBq, iv measured at 24 hrs post injection by gamma counting analysis; type: ADME, organism-based; conditions: in vivo
# [9] = Drug uptake in thyroid/submaxillary glands of C57BL/6J mouse implanted with mouse B16F0 cells at 3.7 MBq, iv measured at 24 hrs post injection by gamma counting analysis; type: ADME, organism-based, Submaxillary gland/Thyroid; conditions: in vivo
# [10] = Ratio of drug uptake in tumor to muscle in C57BL/6J mouse implanted with mouse B16F0 cells at 3.7 MBq, iv measured at 72 hrs post injection; type: ADME, organism-based; conditions: in vivo
# [11] = Drug uptake in intestine of C57BL/6J mouse implanted with mouse B16F0 cells at 3.7 MBq, iv measured at 1 hr post injection by gamma counting analysis; type: ADME, organism-based; conditions: in vivo
# [12] = Drug uptake in eyes of C57BL/6J mouse implanted with mouse B16F0 cells at 3.7 MBq, iv measured at 1 hr post injection by gamma counting analysis; type: ADME, organism-based, Eye; conditions: in vivo
# [13] = Ratio of drug uptake in tumor to blood in C57BL/6J mouse implanted with mouse B16F0 cells at 3.7 MBq, iv measured at 1 hr post injection; type: ADME, organism-based
# [14] = Drug uptake in stomach of C57BL/6J mouse implanted with mouse B16F0 cells at 3.7 MBq, iv measured at 3 hrs post injection by gamma counting analysis; type: ADME, organism-based; conditions: in vivo
# [15] = Drug uptake in bladder of C57BL/6J mouse implanted with mouse B16F0 cells at 3.7 MBq, iv measured at 1 hr post injection by scintigraphic imaging analysis; type: ADME, organism-based, Urinary bladder; conditions: in vivo
# [16] = Drug uptake in stomach of C57BL/6J mouse implanted with mouse B16F0 cells at 3.7 MBq, iv measured at 6 hrs post injection by gamma counting analysis; type: ADME, organism-based; conditions: in vivo
# [17] = Drug uptake in intestine of C57BL/6J mouse implanted with mouse B16F0 cells at 3.7 MBq, iv measured at 6 hrs post injection by gamma counting analysis; type: ADME, organism-based; conditions: in vivo
# [18] = Drug uptake in tumor of C57BL/6J mouse implanted with mouse B16F0 cells at 3.7 MBq, iv measured at 24 hrs post injection by gamma counting analysis; type: ADME, organism-based, Neoplasm; conditions: in vivo
# [19] = Ratio of drug uptake in tumor to muscle in C57BL/6J mouse implanted with mouse B16F0 cells at 3.7 MBq, iv measured at 1 hr post injection; type: ADME, organism-based; conditions: in vivo
# [20] = Drug uptake in tumor of C57BL/6J mouse implanted with mouse B16F0 cells at 3.7 MBq, iv measured at 72 hrs post injection by gamma counting analysis; type: ADME, organism-based, Neoplasm; conditions: in vivo
# Mus musculus [21] = assay: Toxicity in C57BL/6J mouse assessed as rough coat at 3.7 MBq, iv measured up to 72 hrs post injection; type: organism-based; conditions: in vivo
# [22] = Drug uptake in intestine of C57BL/6J mouse implanted with mouse B16F0 cells at 3.7 MBq, iv measured at 72 hrs post injection by gamma counting analysis; type: ADME, organism-based; conditions: in vivo
# [23] = Drug uptake in liver of C57BL/6J mouse implanted with mouse B16F0 cells at 3.7 MBq, iv measured at 1 hr post injection by gamma counting analysis; type: ADME, organism-based; conditions: in vivo
# [24] = Drug uptake in eyes of C57BL/6J mouse implanted with mouse B16F0 cells at 3.7 MBq, iv measured at 24 hrs post injection by gamma counting analysis; type: ADME, organism-based, Eye; conditions: in vivo
# [25] = Drug uptake in tumor of C57BL/6J mouse implanted with mouse B16F0 cells at 3.7 MBq, iv measured at 3 hrs post injection by gamma counting analysis; type: ADME, organism-based, Neoplasm; conditions: in vivo
# [26] = Drug uptake in liver of C57BL/6J mouse implanted with mouse B16F0 cells at 3.7 MBq, iv measured at 24 hrs post injection by gamma counting analysis; type: ADME, organism-based; conditions: in vivo
# [27] = Drug uptake in thyroid/submaxillary glands of C57BL/6J mouse implanted with mouse B16F0 cells at 3.7 MBq, iv measured at 72 hrs post injection by gamma counting analysis; type: ADME, organism-based, Submaxillary gland/Thyroid; conditions: in vivo
# [28] = Drug uptake in liver of C57BL/6J mouse implanted with mouse B16F0 cells at 3.7 MBq, iv measured at 72 hrs post injection by gamma counting analysis; type: ADME, organism-based; conditions: in vivo
# [29] = Drug uptake in muscles of C57BL/6J mouse implanted with mouse B16F0 cells at 3.7 MBq, iv measured at 3 hrs post injection by gamma counting analysis; type: ADME, organism-based, Muscle tissue; conditions: in vivo
# [30] = Drug uptake in blood of C57BL/6J mouse implanted with mouse B16F0 cells at 3.7 MBq, iv measured at 1 hr post injection by gamma counting analysis; type: ADME, organism-based; conditions: in vivo
# [31] = Ratio of drug uptake in tumor to muscle in C57BL/6J mouse implanted with mouse B16F0 cells at 3.7 MBq, iv measured at 24 hrs post injection; type: ADME, organism-based; conditions: in vivo
# [32] = Ratio of drug uptake in tumor to muscle in C57BL/6J mouse implanted with mouse B16F0 cells at 3.7 MBq, iv measured at 6 hrs post injection; type: ADME, organism-based; conditions: in vivo
# [33] = Ratio of drug uptake in tumor to blood in C57BL/6J mouse implanted with mouse B16F0 cells at 3.7 MBq, iv measured at 72 hrs post injection; type: ADME, organism-based
# [34] = Drug uptake in abdomen of C57BL/6J mouse implanted with mouse B16F0 cells at 3.7 MBq, iv measured at 1 hr post injection by scintigraphic imaging analysis; type: ADME, organism-based; conditions: in vivo
# [35] = Drug uptake in intestine of C57BL/6J mouse implanted with mouse B16F0 cells at 3.7 MBq, iv measured at 3 hrs post injection by gamma counting analysis; type: ADME, organism-based; conditions: in vivo
# [36] = Drug uptake in muscles of C57BL/6J mouse implanted with mouse B16F0 cells at 3.7 MBq, iv measured at 24 hrs post injection by gamma counting analysis; type: ADME, organism-based, Muscle tissue; conditions: in vivo
# Mus musculus [37] = assay: Toxicity in C57BL/6J mouse assessed as lethargy at 3.7 MBq, iv measured up to 72 hrs post injection; type: organism-based; conditions: in vivo
# [38] = Drug uptake in thyroid/submaxillary glands of C57BL/6J mouse implanted with mouse B16F0 cells at 3.7 MBq, iv measured at 6 hrs post injection by gamma counting analysis; type: ADME, organism-based, Submaxillary gland/Thyroid; conditions: in vivo
SMILES,Drug uptake [1],Drug uptake [2],Drug uptake [3],Drug uptake [4],Drug uptake [5],Drug uptake [6],Ratio [7],Drug uptake [8],Drug uptake [9],Ratio [10],Drug uptake [11],Drug uptake [12],Kp at 1 h [13],Drug uptake [14],Drug uptake [15],Drug uptake [16],Drug uptake [17],Drug uptake [18],Ratio [19],Drug uptake [20],further results
CCN(CC)CCNC(=O)c1cnc2cc(NC(=O)COc3ccc(SSCCOC(=O)O[C@H]4C[C@H](n5cc([125I])c(=O)[nH]c5=O)O[C@@H]4CO)cc3)ccc2n1,1 % ID/g,1.99 % ID/g,2.57 % ID/g,1.23 % ID/g,0.28 % ID/g,19.21 % ID/g,5.59,1.01 % ID/g,19.5 % ID/g,5.28,2.51 % ID/g,0.78 % ID/g,1.11,27.07 % ID/g,Active,6.67 % ID/g,1.24 % ID/g,0.72 % ID/g,4.84,0.37 % ID/g,Activity (Mus musculus [21]): Non-Toxic; Drug uptake [22]: 0.27 % ID/g; Drug uptake [23]: 1.12 % ID/g; Drug uptake [24]: 0.09 % ID/g; Drug uptake [25]: 2.75 % ID/g; Drug uptake [26]: 0.13 % ID/g; Drug uptake [27]: 11.36 % ID/g; Drug uptake [28]: 0.11 % ID/g; Drug uptake [29]: 0.51 % ID/g; Drug uptake [30]: 2.14 % ID/g; Ratio [31]: 18.24; Ratio [32]: 12.3; Kp at 72 h [33]: 1.12; Drug uptake [34]: Active; Drug uptake [35]: 2.88 % ID/g; Drug uptake [36]: 0.04 % ID/g; Activity (Mus musculus [37]): Non-Toxic; Drug uptake [38]: 26.6 % ID/g
O=c1[nH]c(=O)n([C@H]2C[C@H](O)[C@@H](CO)O2)cc1[125I],0.52 % ID/g,2.57 % ID/g,1.49 % ID/g,0.63 % ID/g,0.24 % ID/g,18.09 % ID/g,3.75,0.62 % ID/g,22.45 % ID/g,14.58,1.62 % ID/g,1.02 % ID/g,0.89,12.33 % ID/g,Active,4.19 % ID/g,0.77 % ID/g,0.46 % ID/g,2.96,0.33 % ID/g,Activity (Mus musculus [21]): Non-Toxic; Drug uptake [22]: 0.24 % ID/g; Drug uptake [23]: 1.3 % ID/g; Drug uptake [24]: 0.04 % ID/g; Drug uptake [25]: 1.66 % ID/g; Drug uptake [26]: 0.08 % ID/g; Drug uptake [27]: 4.17 % ID/g; Drug uptake [28]: 0.04 % ID/g; Drug uptake [29]: 1.06 % ID/g; Drug uptake [30]: 3.17 % ID/g; Ratio [31]: 24.35; Ratio [32]: 10.66; Kp at 72 h [33]: 14.4; Drug uptake [34]: Active; Drug uptake [35]: 1.27 % ID/g; Drug uptake [36]: 0.02 % ID/g; Activity (Mus musculus [37]): Non-Toxic; Drug uptake [38]: 14.26 % ID/g
